According to US9216992B2, “Thieno[3,2-c]pyridine potassium channel inhibitors” (Xention Limited, priority 2005, dated 2015):

How the values were obtained:
[1] = target: T1, human Kv1.3 (Homo sapiens, UniProt P22001); experiment: Kv1.3 Autopatch Electrophysiology; format: cell-based; conditions: 1 μM compound; CHO cells stably transfected with human Kv1.3; AutoPatch whole cell mode; room temperature; read-out: Kv 1.3% Inhibition at 1 μM
T1 construct: expressed in transfected cells; host or cells: stably transfected cells
T1 sequence (P22001 whole entry): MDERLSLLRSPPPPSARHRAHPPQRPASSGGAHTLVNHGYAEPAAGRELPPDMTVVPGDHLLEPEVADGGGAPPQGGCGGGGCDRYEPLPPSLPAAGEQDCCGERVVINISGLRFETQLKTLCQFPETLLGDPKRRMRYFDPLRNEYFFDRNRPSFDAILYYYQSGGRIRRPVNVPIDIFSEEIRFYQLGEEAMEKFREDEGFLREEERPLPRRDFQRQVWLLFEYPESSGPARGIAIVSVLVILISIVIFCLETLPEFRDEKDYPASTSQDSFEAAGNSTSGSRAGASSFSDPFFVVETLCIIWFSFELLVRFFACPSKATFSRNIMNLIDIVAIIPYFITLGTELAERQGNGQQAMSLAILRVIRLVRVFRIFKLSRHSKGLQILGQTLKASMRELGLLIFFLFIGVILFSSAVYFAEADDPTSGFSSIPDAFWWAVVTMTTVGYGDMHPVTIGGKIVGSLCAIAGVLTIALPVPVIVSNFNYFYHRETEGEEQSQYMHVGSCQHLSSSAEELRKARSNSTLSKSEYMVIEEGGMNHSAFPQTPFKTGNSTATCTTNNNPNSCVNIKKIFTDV
Procedure: Kv1.3 Autopatch Electrophysiology Method
(§1) Cells stably transfected with cDNA for human Kv1.3 (in pcDNA3.1) were grown in Ex-cell 302 serum-free medium for CHO cells, supplemented with 10 μl/ml [100×] glutamine, 500 μg/ml G418 (gentimicin), and 1% HT supplement (50×, hypoxanthine and thymidine). Compounds were tested on these cells using the AutoPatch technology in whole cell mode.
The external bathing solution contained (in mM): 150 NaCl, 10 KCl, 1 MgCl2, 3 CaCl2, 10 HEPES, pH 7.4 with NaOH. Patch pipettes were filled with an electrode solution of composition (in mM): 100 K-Gluconate, 20 KCl, 1 MgCl2, 1 CaCl2, 10 HEPES, 11 EGTA, 5 ATP—Na2, 2 Glutathione pH 7.2 with KOH.
(§2) Compounds were dissolved in DMSO (100%) and made up in the external bather at a concentration of 1 μM. All experiments were conducted at room temperature (22-24° C.).
(§3) A cell suspension (10 ml), with a density of 100,000 cells/ml, was aliquoted into a 15 ml centrifuge tube and transferred to an incubator (37° C., 5% CO2) for approximately one hour before use. Following 60 min incubation, a tube was taken and centrifuged at 1000 rpm for 4 mins at room temperature. 9.5 ml supernatant was thence discarded, leaving a cell pellet at the bottom of the tube. The pellet was then resuspended using 100 μl of cold (4° C.), filtered (0.22 μm), 0.2% BSA/bather solution (0.02 g BSA/10 ml bather). The bottom of the tube was manually agitated gently until the solution became cloudy with cells. The 100 μl cell resuspension solution was then stored on the bench at 4° C. (using a Peltier-based temperature control device) until used.
(§4) A length of capillary glass (1B150F-4, WPI) was dipped into the cell suspension solution, such that ˜3 cm column of fluid was taken up by capillary action. A Ag/AgCl wire was dropped into the non-dipped end of the capillary also. The outside of the solution-filled end of the capillary was then dried and the capillary was loaded into the AutoPatch™. Borosilicate glass patch pipettes (from 1.5 mm OD, thin-walled filamented, GC150-TF capillary glass, Harvard) were pulled using a DMZ pipette puller (Zeitz Instruments), and were back-filled using the internal pipette solution, being careful that no bubbles remain at the tip or in the body of the pipette. Patch pipettes typically had resistances of 2.3-3.5 MΩ. Once filled, the pipette tip and a proportion of the shaft (˜15 mm) were dipped into Sigmacote (Sigma). The recording pipette was then loaded into the AutoPatch™. Automated patch-clamping was initiated by the operator, but thereafter AutoPatch.exe continued the experiment providing that pre-set conditions and criteria were satisfied.
(§5) Whole cell patch-clamp recordings were made using the AutoPatch™ rig, which incorporated an EPC9 or EPC10 amplifier (HEKA, Germany) under control of Pulse software (v8.54 or v8.76, HEKA, Germany), a motion controller with 2 translators (Newport, UK), valve controller (VF1) and a c-level suction device all at room temperature (22-24° C.). This equipment was completely under the control of AutoPatch.exe and operator intervention was only made when there was a requirement to refill the drug reservoirs or to prevent the loss of a cell due to a technical error. Cells with an Rseries greater than 18 MΩ were discounted from the experiment.
(§6) Qualification stages prior to perfusion and drug application ensured that the observed current met the criteria for the experiment. Only those cells with an IK>400 pA were used for experiments. Cells were continuously perfused with external solution at a flow rate of 1.8-2 ml/minute. […] Online analysis of the hKv1.3 current during the application of compounds was performed by the AutoPatch™ software. Voltage-step protocols and analysis of data was performed as described for conventional electrophysiology.
(§7) Electrophysiology voltage-step protocols and analysis of data was performed as follows. Data was sampled at 5 kHz, and filtered with a −3 dB bandwidth of 2.5 kHz. Cells were held at a voltage of −80 mV. […]

[2] = target: T2, human Kv1.5 (Homo sapiens, UniProt P22460); experiment: Kv1.5 Autopatch Electrophysiology; format: cell-based; conditions: 1 μM compound; CHO cells stably transfected with human Kv1.5; AutoPatch whole cell mode; room temperature; read-out: Kv 1.5% Inhibition at 1 μM
T2 construct: expressed in transfected cells; host or cells: stably transfected cells
T2 sequence (P22460 whole entry): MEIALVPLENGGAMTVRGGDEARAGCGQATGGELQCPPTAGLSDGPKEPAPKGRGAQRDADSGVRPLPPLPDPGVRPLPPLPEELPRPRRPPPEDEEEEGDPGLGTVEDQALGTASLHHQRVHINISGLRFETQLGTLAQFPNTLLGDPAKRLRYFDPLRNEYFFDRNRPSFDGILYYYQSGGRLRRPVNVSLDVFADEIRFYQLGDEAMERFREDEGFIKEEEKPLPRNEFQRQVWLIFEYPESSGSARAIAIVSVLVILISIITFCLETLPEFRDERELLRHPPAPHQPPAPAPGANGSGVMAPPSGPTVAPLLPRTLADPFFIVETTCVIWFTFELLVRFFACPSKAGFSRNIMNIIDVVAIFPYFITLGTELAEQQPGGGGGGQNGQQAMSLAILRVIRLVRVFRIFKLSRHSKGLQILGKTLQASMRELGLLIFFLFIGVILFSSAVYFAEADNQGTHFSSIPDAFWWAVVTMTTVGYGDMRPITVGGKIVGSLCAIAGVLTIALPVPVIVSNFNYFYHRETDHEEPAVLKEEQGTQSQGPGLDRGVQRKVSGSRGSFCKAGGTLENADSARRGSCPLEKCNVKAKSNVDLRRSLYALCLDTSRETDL
Procedure: Kv1.5 Autopatch Electrophysiology Method
as §1, with “Kv1.5” for “Kv1.3”, “pEF6::VA-His-TOPO)” for “pcDNA3.1)”, “5” for “500”, “blasticidin” for “G418 (gentimicin),”
The external bathing solution contained (in mM): 150 NaCl, 10 KCl, 1 MgCl2, 3 CaCl2, 10 HEPES, pH 7.4 with NaOH. Patch pipettes were filled with an electrode solution of composition (in mM): 160 KCl, 0.5 MgCl2, 10 HEPES, 1 EGTA, pH 7.4 with KOH.
as §2, §3, §4, §5
as §6, with “IK>500” for “IK>400”, “hKv1.5” for “hKv1.3”
as §7

Row | Compound | inhibition at 1 µM [1] | inhibition at 1 µM [2]
1 | Cc1ccc(-c2csc3c(-c4cccnc4)cnc(NCc4ccccc4)c23)cc1 [Example 39, Benzyl-(7-pyridin-3-yl-3-p-tolyl-thieno[3,2-c]pyridin-4-yl)-amine] | 50.1% | 90%
2 | Cc1ccc(-c2csc3c(-c4ccncc4)cnc(NCc4ccccc4)c23)cc1 [Example 40, Benzyl-(7-pyridin-4-yl-3-p-tolyl-thieno[3,2-c]pyridin-4-yl)-amine] | 49.9% | 36.3%
3 | Cc1ccc(-c2csc3c(-c4cccc(S(C)(=O)=O)c4)cnc(NCc4ccccc4)c23)cc1 [Example 41, Benzyl-[7-(3-methanesulfonyl-phenyl)-3-p-tolyl-thieno[3,2-c]pyridin-4-yl]-amine] | 26.3% | 39.8%
4 | Cc1ccc(-c2csc3c(-c4ccc(N(C)C)cc4)cnc(NCc4ccccc4)c23)cc1 [Example 42, Benzyl-[7-(4-dimethylamino-phenyl)-3-p-tolyl-thieno[3,2-c]pyridin-4-yl]-amine] | 24.1% | 14.5%
5 | Cc1ccc(-c2csc3c(-c4ccccc4F)cnc(NCc4ccccc4)c23)cc1 [Example 43, Benzyl-[7-(2-fluoro-phenyl)-3-p-tolyl-thieno[3,2-c]pyridin-4-yl]-amine] | 13.6% | 26.3%
6 | Cc1ccc(-c2csc3c(-c4cccc(F)c4)cnc(NCc4ccccc4)c23)cc1 [Example 44, Benzyl-[7-(3-fluoro-phenyl)-3-p-tolyl-thieno[3,2-c]pyridin-4-yl]-amine] | 29.6% | 18.8%
7 | Cc1ccc(-c2csc3c(-c4ccc(F)cc4)cnc(NCc4ccccc4)c23)cc1 [Example 45, Benzyl-[7-(4-fluoro-phenyl)-3-p-tolyl-thieno[3,2-c]pyridin-4-yl]-amine] | 34% | 24.7%
8 | Cc1cc2scc(-c3ccccc3)c2c(NCc2ccccc2)n1 [Example 50, Benzyl-(6-methyl-3-phenyl-thieno[3,2-c]pyridin-4-yl)-amine] | 23.7% | 50.8%
